Results on 4 molecules are retold here after ChEMBL document CHEMBL3217645, “Online parallel fragment screening and rapid hit exploration for nicotinic acetylcholine receptors” (Medchemcomm, 2011).

Some results are limits rather than exact numbers.

Assay [1] is described as follows: Selectivity ratio of Ki for Lymnaea stagnalis recombinant C-terminal His-tagged AChBP to Ki for human alpha7 nAChR.
For assay [2], the target named is Acetylcholine-binding protein (Lymnaea stagnalis, UniProt P58154). Briefly: Displacement of [3H]epibatadine from Lymnaea stagnalis recombinant C-terminal His-tagged AChBP expressed in baculovirus infected SF9 cells after 1.5 hrs by scintillation counting analysis.
Sequence of Acetylcholine-binding protein (P58154 whole entry): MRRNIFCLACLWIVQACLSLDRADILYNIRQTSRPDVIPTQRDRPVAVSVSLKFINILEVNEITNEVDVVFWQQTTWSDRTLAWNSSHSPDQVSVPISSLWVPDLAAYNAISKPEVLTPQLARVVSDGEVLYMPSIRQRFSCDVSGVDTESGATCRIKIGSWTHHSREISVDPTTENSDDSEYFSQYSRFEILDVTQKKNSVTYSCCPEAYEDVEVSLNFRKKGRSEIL
Assay [3] has as its target Neuronal acetylcholine receptor subunit alpha-7 (Homo sapiens, UniProt P36544). Description: Displacement of [3H]epibatadine from human alpha7 nAChR expressed in human SH-SY5Y cells after 1.5 hrs by scintillation counting analysis. The class given is cell-based.
The nature of assay [4]: Displacement of [3H]epibatadine from Aplysia californica recombinant C-terminal His-tagged AChBP expressed in baculovirus infected SF9 cells after 1.5 hrs by scintillation counting analysis.
A short description of assay [5]: Selectivity ratio of Ki for Lymnaea stagnalis AChBP over Ki for Aplysia californica AChBP.
The target of assay [6] is Neuronal acetylcholine receptor; alpha4/beta2 (Homo sapiens, UniProt P17787+P43681). Briefly: Displacement of [3H]epibatadine from human alpha4beta2 nAChR expressed in HEK293T cells after 1.5 hrs by scintillation counting analysis. The class given is cell-based, HEK-293T.
Sequence of Neuronal acetylcholine receptor; alpha4/beta2 (P17787 whole entry): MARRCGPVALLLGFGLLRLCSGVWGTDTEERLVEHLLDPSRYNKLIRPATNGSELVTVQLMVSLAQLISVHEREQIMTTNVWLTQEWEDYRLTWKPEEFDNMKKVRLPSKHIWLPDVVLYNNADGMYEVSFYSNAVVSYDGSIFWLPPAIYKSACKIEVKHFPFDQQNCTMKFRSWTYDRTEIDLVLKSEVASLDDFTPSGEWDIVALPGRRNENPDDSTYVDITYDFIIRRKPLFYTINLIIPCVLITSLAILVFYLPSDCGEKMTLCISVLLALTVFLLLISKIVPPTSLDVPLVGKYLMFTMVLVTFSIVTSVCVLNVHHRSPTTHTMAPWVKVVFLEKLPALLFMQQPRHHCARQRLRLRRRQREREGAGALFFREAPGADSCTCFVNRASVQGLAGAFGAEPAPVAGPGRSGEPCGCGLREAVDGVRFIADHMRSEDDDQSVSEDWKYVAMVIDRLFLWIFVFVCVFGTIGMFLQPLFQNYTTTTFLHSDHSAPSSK
Sequence of Neuronal acetylcholine receptor; alpha4/beta2 (P43681 whole entry): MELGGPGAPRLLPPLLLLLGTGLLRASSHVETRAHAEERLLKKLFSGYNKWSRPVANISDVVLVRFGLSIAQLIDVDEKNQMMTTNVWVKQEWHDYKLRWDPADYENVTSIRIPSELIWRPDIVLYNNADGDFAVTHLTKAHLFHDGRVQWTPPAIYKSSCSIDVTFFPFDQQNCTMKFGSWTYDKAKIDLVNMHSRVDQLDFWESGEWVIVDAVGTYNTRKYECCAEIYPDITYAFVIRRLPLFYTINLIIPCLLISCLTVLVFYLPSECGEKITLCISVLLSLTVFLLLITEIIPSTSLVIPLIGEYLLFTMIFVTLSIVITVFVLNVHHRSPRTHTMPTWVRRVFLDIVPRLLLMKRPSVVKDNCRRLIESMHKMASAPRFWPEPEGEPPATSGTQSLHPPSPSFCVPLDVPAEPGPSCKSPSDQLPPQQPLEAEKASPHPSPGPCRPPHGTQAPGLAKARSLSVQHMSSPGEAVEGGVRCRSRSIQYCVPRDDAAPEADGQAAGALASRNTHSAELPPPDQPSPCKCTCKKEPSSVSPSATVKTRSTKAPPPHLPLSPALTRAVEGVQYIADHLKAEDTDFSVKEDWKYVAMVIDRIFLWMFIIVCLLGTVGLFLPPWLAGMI

Sequence of Neuronal acetylcholine receptor subunit alpha-7 (P36544 whole entry): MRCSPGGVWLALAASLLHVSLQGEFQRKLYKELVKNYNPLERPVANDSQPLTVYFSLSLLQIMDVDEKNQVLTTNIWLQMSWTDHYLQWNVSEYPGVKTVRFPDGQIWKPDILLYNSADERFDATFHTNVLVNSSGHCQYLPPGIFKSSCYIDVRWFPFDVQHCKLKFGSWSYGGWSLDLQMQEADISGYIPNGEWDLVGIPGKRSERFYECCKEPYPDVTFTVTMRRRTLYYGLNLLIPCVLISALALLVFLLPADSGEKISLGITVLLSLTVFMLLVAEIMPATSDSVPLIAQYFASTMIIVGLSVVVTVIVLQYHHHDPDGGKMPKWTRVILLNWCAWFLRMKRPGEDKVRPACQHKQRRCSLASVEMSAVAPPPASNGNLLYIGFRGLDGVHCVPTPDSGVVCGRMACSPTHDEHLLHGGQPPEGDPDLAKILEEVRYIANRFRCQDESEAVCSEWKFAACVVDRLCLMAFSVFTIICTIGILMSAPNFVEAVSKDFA

Take `CN1[C@@H]2CC[C@H]1C/C(=N\Nc1ccccc1Cl)C2`: the Ratio Ki in assay [1] was found to be 5. Also, the figures for the inhibition constant Ki in assay [2] and in assay [3] were 0.204 µM and 2.19 µM, respectively.

`CC(C)N1CCC(=NO)CC1`: the Ki is 10.5 µM in assay [2], above 100 µM in assay [6] and 10.2 µM in assay [3]. Also, the negative-log Ki (pKi) in assay [4] was below 4. Moreover, the Ratio Ki in assay [5] is above 9.5.

As for `C[C@H](NC(=O)[C@H](CS)NC(=O)[C@H](CCCNC(=N)N)NC(=O)[C@@H]1CCCN1C(=O)[C@H](CC(=O)O)NC(=O)[C@H](CO)NC(=O)[C@H](CS)NC(=O)[C@H](CS)NC(=O)CN)C(=O)N[C@@H](Cc1c[nH]c2ccccc12)C(=O)N[C@@H](CCCNC(=N)N)C(=O)N[C@@H](CS)C(N)=O`, the Ratio Ki in assay [5] is above 6000.

In the case of `Fc1ccc(F)c(NN=C2CCN(CCc3ccccc3)CC2)c1`, the inhibition constant Ki is 0.0891 µM in assay [2] and above 100 µM in assay [3].
